From ChEMBL document CHEMBL4346705, “(±)-trans-Dihydronarciclasine and (±)-trans-dihydrolycoricidine analogues modified in their ring A: Evaluation of their anticancer activity and a SAR study” (2019)

Columns and labels:
Assay type in all cases: functional
[1] = system: K562; assay: Cytotoxicity against human K562 cells assessed as growth inhibition after 48 hrs by sulforhodamine B assay; conditions: K562, 48 h; for CC50: read-out: LC50 (the source's name)
[2] = system: RPMI-8226; assay: Cytotoxicity against human RPMI8226 cells assessed as growth inhibition after 48 hrs by sulforhodamine B assay; conditions: RPMI-8226, 48 h
[3] = system: SR; assay: Cytotoxicity against human SR cells assessed as growth inhibition after 48 hrs by sulforhodamine B assay; conditions: for CC50: read-out: LC50 (the source's name)
[4] = system: HOP-92; assay: Cytotoxicity against human HOP92 cells assessed as growth inhibition after 48 hrs by sulforhodamine B assay; conditions: HOP-92, 48 h
[5] = system: NCI-H226; assay: Cytotoxicity against human NCI-H226 cells assessed as growth inhibition after 48 hrs by sulforhodamine B assay; conditions: NCI-H226, 48 h
[6] = system: NCI-H23; assay: Cytotoxicity against human NCI-H23 cells assessed as growth inhibition after 48 hrs by sulforhodamine B assay; conditions: NCI-H23, 48 h; for CC50: read-out: LC50 (the source's name)
[7] = system: NCI-H460; assay: Cytotoxicity against human NCI-H460 cells assessed as growth inhibition after 48 hrs by sulforhodamine B assay; conditions: NCI-H460, 48 h
[8] = system: COLO 205; assay: Cytotoxicity against human COLO205 cells assessed as growth inhibition after 48 hrs by sulforhodamine B assay; conditions: COLO 205, 48 h
[9] = system: KM12; assay: Cytotoxicity against human KM12 cells assessed as growth inhibition after 48 hrs by sulforhodamine B assay; conditions: KM12, 48 h
[10] = system: U-251; assay: Cytotoxicity against human U251 cells assessed as growth inhibition after 48 hrs by sulforhodamine B assay; conditions: U-251, 48 h
[11] = system: MDA-MB-435; assay: Cytotoxicity against human MDA-MB-435 cells assessed as growth inhibition after 48 hrs by sulforhodamine B assay; conditions: MDA-MB-435, 48 h
[12] = system: SK-MEL-2; assay: Cytotoxicity against human SK-MEL-2 cells assessed as growth inhibition after 48 hrs by sulforhodamine B assay; conditions: SK-MEL-2, 48 h
[13] = system: UACC-257; assay: Cytotoxicity against human UACC257 cells assessed as growth inhibition after 48 hrs by sulforhodamine B assay; conditions: UACC-257, 48 h
[14] = system: IGROV-1; assay: Cytotoxicity against human IGROV1 cells assessed as growth inhibition after 48 hrs by sulforhodamine B assay; conditions: IGROV-1, 48 h
[15] = system: NCI/ADR-RES; assay: Cytotoxicity against human NCI-ADR-RES cells assessed as growth inhibition after 48 hrs by sulforhodamine B assay; conditions: for CC50: read-out: LC50 (the source's name)
[16] = system: SK-OV-3; assay: Cytotoxicity against human SKOV3 cells assessed as growth inhibition after 48 hrs by sulforhodamine B assay; conditions: SK-OV-3, 48 h; for CC50: read-out: LC50 (the source's name)
[17] = system: ACHN; assay: Cytotoxicity against human ACHN cells assessed as growth inhibition after 48 hrs by sulforhodamine B assay
[18] = system: CAKI-1; assay: Cytotoxicity against human Caki1 cells assessed as growth inhibition after 48 hrs by sulforhodamine B assay; conditions: CAKI-1, 48 h; for CC50: read-out: LC50 (the source's name)
[19] = system: RXF 393; assay: Cytotoxicity against human RXF393 cells assessed as growth inhibition after 48 hrs by sulforhodamine B assay; conditions: RXF 393, 48 h
[20] = system: SN12C; assay: Cytotoxicity against human SN12C cells assessed as growth inhibition after 48 hrs by sulforhodamine B assay; conditions: for CC50: read-out: LC50 (the source's name)
[21] = system: TK-10; assay: Cytotoxicity against human TK10 cells assessed as growth inhibition after 48 hrs by sulforhodamine B assay; conditions: TK-10, 48 h
[22] = system: DU-145; assay: Cytotoxicity against human DU145 cells assessed as growth inhibition after 48 hrs by sulforhodamine B assay; conditions: DU-145, 48 h
[23] = system: T47D; assay: Cytotoxicity against human T47D cells assessed as growth inhibition after 48 hrs by sulforhodamine B assay
[24] = system: SNB-75; assay: Cytotoxicity against human SNB75 cells assessed as growth inhibition after 48 hrs by sulforhodamine B assay; conditions: SNB-75, 48 h

O=C1NC2C(CC(O)C(O)C2O)c2cc3c(c(O)c21)OCCO3 (racemic)
GI50 [1]: 126 nM
TGI [1]: 10.7 µM
CC50 [1]: > 100 µM
GI50 [2]: 265 nM
LC50 [2]: > 100 µM
TGI [2]: 1140 nM
GI50 [3]: 314 nM
TGI [3]: 36.8 µM
CC50 [3]: > 100 µM
GI50 [4]: 110 nM
LC50 [4]: > 100 µM
TGI [4]: 1010 nM
GI50 [5]: 220 nM
LC50 [5]: 79.8 µM
TGI [5]: 730 nM
GI50 [6]: 214 nM
TGI [6]: 870 nM
CC50 [6]: > 100 µM
GI50 [7]: 154 nM
LC50 [7]: > 100 µM
TGI [7]: 1050 nM
GI50 [8]: 176 nM
TGI [8]: 410 nM
GI50 [9]: 187 nM
LC50 [9]: > 100 µM
TGI [9]: 1210 nM
GI50 [10]: 243 nM
LC50 [10]: > 100 µM
TGI [10]: 14.5 µM
GI50 [11]: 265 nM
LC50 (concentration killing 50% of cells) [11]: 13.3 µM
TGI [11]: 1170 nM
GI50 [12]: 245 nM
TGI [12]: 930 nM
GI50 [13]: 289 nM
LC50 [13]: > 100 µM
TGI [13]: 1470 nM
GI50 [14]: 343 nM
LC50 [14]: > 100 µM
TGI [14]: 2680 nM
GI50 [15]: 596 nM
TGI [15]: 5.85 µM
CC50 [15]: > 100 µM
GI50 [16]: 496 nM
TGI [16]: 4030 nM
CC50 [16]: > 100 µM
GI50 [17]: 297 nM
LC50 (concentration killing 50% of cells) [17]: 7.73 µM
TGI [17]: 1480 nM
GI50 [18]: 586 nM
TGI [18]: 5.47 µM
CC50 [18]: > 100 µM
GI50 [19]: 179 nM
LC50 (50% lethal concentration) [19]: 6.3 µM
TGI [19]: 710 nM
GI50 [20]: 141 nM
TGI [20]: 890 nM
CC50 [20]: > 100 µM
GI50 [21]: 563 nM
LC50 [21]: > 100 µM
TGI [21]: 3870 nM
GI50 [22]: 239 nM
LC50 [22]: > 100 µM
TGI [22]: 860 nM
GI50 [23]: 143 nM
LC50 (concentration killing 50% of cells) [23]: > 100 µM
TGI [23]: 900 nM

O=C1NC2C(CC(O)C(O)C2O)c2cc3c(c(O)c21)OCO3 (racemic)
GI50 [1]: 52.9 nM
TGI [1]: > 100 µM
CC50 [1]: > 100 µM
GI50 [2]: 229 nM
TGI [2]: 630 nM
GI50 [3]: 52.2 nM
TGI [3]: > 100 µM
CC50 [3]: > 100 µM
GI50 [4]: 49 nM
TGI [4]: 570 nM
GI50 [5]: 61.7 nM
TGI [5]: 590 nM
GI50 [6]: 74.4 nM
TGI [6]: 520 nM
CC50 [6]: > 100 µM
GI50 [7]: 43.3 nM
TGI [7]: 490 nM
GI50 [8]: 50.5 nM
TGI [8]: 210 nM
GI50 [9]: 44.5 nM
TGI [9]: 320 nM
GI50 [24]: 75.4 nM
TGI [24]: 620 nM
CC50 ([24]; read-out: LC50 (the source's name)): 13.2 µM
GI50 [10]: 45.2 nM
TGI [10]: 1.01 µM
GI50 [11]: 68.1 nM
TGI [11]: 510 nM
GI50 [12]: 56.1 nM
TGI [12]: 250 nM
GI50 [13]: 68.7 nM
TGI [13]: 540 nM
GI50 [14]: 163 nM
TGI [14]: 1110 nM
GI50 [15]: 178 nM
TGI [15]: 1.56 µM
CC50 [15]: > 100 µM
GI50 [16]: 94.9 nM
TGI [16]: 1040 nM
CC50 [16]: > 100 µM
GI50 [17]: 97.9 nM
TGI [17]: 750 nM
GI50 [18]: 91.3 nM
TGI [18]: 0.69 µM
CC50 [18]: > 100 µM
GI50 [19]: 118 nM
TGI [19]: 510 nM
GI50 [20]: 69.3 nM
TGI [20]: 800 nM
CC50 [20]: > 100 µM
GI50 [21]: 221 nM
TGI [21]: 1680 nM
GI50 [22]: 56.7 nM
TGI [22]: 620 nM
GI50 [23]: 52.9 nM
TGI [23]: 670 nM
